One assay relates to G. lamblia GS. Nature of the assay: Trophozoite viability IC50 determination, Giardia assay (ATPLite). In kind it is cell-based. The settings on record: Giardia duodenalis, read-out: Cell viability values Mean IC50 (nM) G. lamblia GS. The protocol: (§1) Giardia cultures: Trophozoites of G. lamblia isolates WB and GS were grown anaerobically in borosilicate glass screw-cap culture tubes (Fisher Scientific) at pH 7.0 in modified TYI-S-33 medium. The medium was supplemented with 10% heat-inactivated bovine serum (Sigma-Aldrich) and 0.05% bovine bile (Sigma-Aldrich). To attain low-oxygen-tension conditions, the tubes were filled to 85 to 90% of their total volume capacity and incubated without shaking at 37° C. Subcultures (2×10^5 trophozoites per tube) were made three times a week. Detachment of trophozoites for inoculation was achieved by chilling the cultures on ice for 20 min. Culturing and detachment of Metronidazole-resistant G. lamblia Assemblage A 713M3 and assemblage B 1279-M1 trophozoites followed the same protocol, except that the growth medium was supplemented with metronidazole gradually increasing the concentration to 10 μM. Amebae cultures: E. histolytica strain HM1:IMSS trophozoites were grown at 37° C. in TYI-S-33 medium supplemented with penicillin (100 U/mL) and streptomycin sulfate (100 μg/mL). Trophozoites were grown anaerobically in borosilicate tubes and subcultures were made 1-2 times a week. Trophozoites were detached for inoculation by chilling the cultures on ice for 20 minutes.
(§2) Trophozoite viability IC50determination
(§3) Giardia assays: 10 μL giardia trophozoites in growth medium were plated at a density of 10,000 cells/well in sterile 96-well black clear bottom assay plates. Fumagillin and fumagillol derivatives were 1:3 serially diluted from a 1 μM DMSO stock solution and then 100 μL/well were transferred in duplicate to the assay wells. Metronidazole (control) was 1:3 serially diluted in growth medium from a 100 μM stock solution in DMSO. The assay plates were placed in a BD GasPak™ EZ Container System (BD Diagnostics) to create an anaerobic growth environment. The sealed containers were incubated at 37° C. for 72 hr. Following incubation, 70 μL/well of the ATPLite reagent (PerkinElmer) was added to the assay plates for one-step lysis and ATP level detection. The luminescent signals of the assay plates were measured on an EnSpire 2300 plate reader (PerkinElmer). Concentration response titration points for each compound were fitted to a 4-parameters logistic nonlinear regression model using KaleidaGraph, yielding the IC50value and standard error (SE).
For orientation: In ATP-based viability assays light output follows the ATP content of the culture.

The subject of another assay is G. lamblia WB. Described as above. In kind it is cell-based. The settings on record: Giardia duodenalis, read-out: Cell viability values Mean IC50 (nM) G. lamblia WB. The protocol: as §1, §2, §3
A further assay deals with E. histolytica HM1: IMSS. Nature of the assay: Trophozoite viability IC50 determination, Amebae assay (ATPLite). In kind it is cell-based. The settings on record: Entamoeba histolytica, read-out: Cell viability values Mean IC50 (nM) E. histolytica HM1: IMSS. The protocol:
as §1, §2, §3
Amebae assays: The protocol is identical to that described above except that the trophozoites were plated at a density of 5000 cells/well because of their larger size.

The target in a further assay is T1, Recombinant human MetAP2 (Homo sapiens, UniProt P50579).
T1 construct: purchased Bio-Techne/R&D systems
The experiment in a line: MetAP2 fluorescence assay. In kind it is biochemical. The settings on record: recombinant human MetAP2, H-Met-Gly-Pro-AMC substrate. The protocol: MetAP2 Fluorescence Assay
Recombinant human MetAP2 (Bio-Techne/R&D systems) was diluted to 10 μg/mL in the assay buffer (50 mM HEPES, 0.1 mM CoCl2, 100 mM NaCl, pH 7.5). The substrate, H-Met-Gly-Pro-AMC (Bio-Techne/R&D systems), was diluted to 500 μM with 2 μg/mL of the coupling enzyme, recombinant human dipeptidyl peptidase-4 (Bio-Techne/R&D systems), in assay buffer. 50 μL of 10 μg/mL recombinant human METAP2 were loaded into a flat-bottom black 96-well plate (Greiner Bio), and the reaction was initiated by adding 50 μL of the substrate/dipeptidyl peptidase-4 mixture. The reaction mixture was incubated at room temperature for 10 minutes, and the fluorescence was measured for 5 minutes at excitation and emission wavelengths of 380 nm and 460 nm, respectively, in kinetic mode. For IC50determination, 0.5 μL inhibitor solution was added to the reaction mixture. The reaction rates were used to calculate IC50with KaleidaGraph.

[1] abbreviates: trophozoites, 72 hr, anaerobic, ATP level.

Where two headings read alike, the source gives them in different places.

For orientation: IC50 means the concentration needed to halve the response being measured.

T1 sequence (P50579 whole entry): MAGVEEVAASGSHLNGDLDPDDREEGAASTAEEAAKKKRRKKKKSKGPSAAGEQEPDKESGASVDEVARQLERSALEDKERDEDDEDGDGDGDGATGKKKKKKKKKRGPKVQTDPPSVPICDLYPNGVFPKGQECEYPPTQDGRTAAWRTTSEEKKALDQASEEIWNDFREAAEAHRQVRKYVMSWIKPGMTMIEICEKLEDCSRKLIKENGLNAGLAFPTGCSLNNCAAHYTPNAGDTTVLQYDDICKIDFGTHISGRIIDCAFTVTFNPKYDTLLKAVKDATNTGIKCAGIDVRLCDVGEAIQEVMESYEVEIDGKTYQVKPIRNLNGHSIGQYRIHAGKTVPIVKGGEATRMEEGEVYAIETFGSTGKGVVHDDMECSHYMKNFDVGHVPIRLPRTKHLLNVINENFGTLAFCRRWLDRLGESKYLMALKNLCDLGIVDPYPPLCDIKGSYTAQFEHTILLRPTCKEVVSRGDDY

Take `CO[C@@H]1[C@H](OC(=O)Nc2c(F)cccc2B(O)O)CC[C@]2(CO2)[C@H]1[C@@]1(C)O[C@@H]1CC=C(C)C` [No 35]: the IC50 is 101 to 1000 nM in the assay with G. lamblia GS (setting [1]), more than 1000 nM with G. lamblia WB (setting [1]), more than 1000 nM in the assay on E. histolytica HM1: IMSS (setting [1]) and less than 10 nM on Recombinant human MetAP2.

Turning to `CO[C@@H]1[C@H](OC(=O)Nc2ccncc2B(O)O)CC[C@]2(CO2)[C@H]1[C@@]1(C)O[C@@H]1CC=C(C)C` [No 37], the concentration for half-maximal inhibition (IC50) was 10.1 to 100 nM with G. lamblia GS (72 h), more than 1000 nM in the assay with G. lamblia WB (72 h), more than 1000 nM in the assay with E. histolytica HM1: IMSS (72 h) and less than 10 nM at Recombinant human MetAP2.

As to `CO[C@@H]1[C@H](OC(=O)Nc2ccc3sc(B(O)O)cc3c2)CC[C@]2(CO2)[C@H]1[C@@]1(C)O[C@@H]1CC=C(C)C` [No 38], the half-maximal inhibitory concentration (IC50) in the assay with G. lamblia GS (72 h) was more than 1000 nM; in the assay on G. lamblia WB (72 h), more than 1000 nM; in the assay with E. histolytica HM1: IMSS (72 h), more than 1000 nM; on Recombinant human MetAP2, less than 10 nM.

As to `CO[C@@H]1[C@H](OC(=O)Nc2csc(B(O)O)c2)CC[C@]2(CO2)[C@H]1[C@@]1(C)O[C@@H]1CC=C(C)C` [No 40], the IC50 in the assay on G. lamblia GS (72 h) was 101 to 1000 nM; in the assay with G. lamblia WB (72 h), more than 1000 nM; with E. histolytica HM1: IMSS (72 h) it was more than 1000 nM; at Recombinant human MetAP2 it was less than 10 nM.

Regarding `CO[C@@H]1[C@H](OC(=O)N2CCc3cc(B(O)O)cnc3C2)CC[C@]2(CO2)[C@H]1[C@@]1(C)O[C@@H]1CC=C(C)C` [No 41], the half-inhibitory concentration (IC50) in the assay on G. lamblia GS (72 h) was 10.1 to 100 nM; in the assay with G. lamblia WB (72 h), 101 to 1000 nM; in the assay on E. histolytica HM1: IMSS (72 h), more than 1000 nM; on Recombinant human MetAP2, less than 10 nM.

Regarding `CO[C@@H]1[C@H](OC(=O)NCc2c(F)cc(B(O)O)cc2F)CC[C@]2(CO2)[C@H]1[C@@]1(C)O[C@@H]1CC=C(C)C` [No 43], the IC50 in the assay on G. lamblia GS (72 h) is 101 to 1000 nM; in the assay with G. lamblia WB (72 h), more than 1000 nM; with E. histolytica HM1: IMSS (72 h), more than 1000 nM; on Recombinant human MetAP2, less than 10 nM.

As for `CO[C@@H]1[C@H](OC(=O)N2CCc3cc(B(O)O)ccc3C2)CC[C@]2(CO2)[C@H]1[C@@]1(C)O[C@@H]1CC=C(C)C` [No 44], the IC50 with G. lamblia GS (72 h) is 10.1 to 100 nM; in the assay with G. lamblia WB (72 h), more than 1000 nM; with E. histolytica HM1: IMSS (72 h) it was more than 1000 nM; on Recombinant human MetAP2, less than 10 nM.

As for `CO[C@@H]1[C@H](OC(=O)Nc2cccc(B(O)O)c2Cl)CC[C@]2(CO2)[C@H]1[C@@]1(C)O[C@@H]1CC=C(C)C` [No 45], the concentration for half-maximal inhibition (IC50) is 101 to 1000 nM in the assay with G. lamblia GS (72 h), more than 1000 nM in the assay on G. lamblia WB (72 h), more than 1000 nM in the assay with E. histolytica HM1: IMSS (72 h) and less than 10 nM on Recombinant human MetAP2.

On to `CO[C@@H]1[C@H](OC(=O)Nc2c(B(O)O)ccnc2Cl)CC[C@]2(CO2)[C@H]1[C@@]1(C)O[C@@H]1CC=C(C)C` [No 47], for which the 50% inhibitory concentration (IC50) was 101 to 1000 nM in the assay on G. lamblia GS (72 h), more than 1000 nM with G. lamblia WB (72 h), more than 1000 nM in the assay on E. histolytica HM1: IMSS (72 h) and less than 10 nM at Recombinant human MetAP2.

`CO[C@@H]1[C@H](OC(=O)NC(CF)c2ccc(B(O)O)cc2)CC[C@]2(CO2)[C@H]1[C@@]1(C)O[C@@H]1CC=C(C)C` (stereo partly shown) [No 48]: the IC50 in the assay on G. lamblia GS (72 h) is 101 to 1000 nM; in the assay on G. lamblia WB (72 h), more than 1000 nM; in the assay with E. histolytica HM1: IMSS (72 h), more than 1000 nM; on Recombinant human MetAP2 it was less than 10 nM.

As for `CO[C@@H]1[C@H](OC(=O)Nc2cc(B(O)O)c3occc3c2)CC[C@]2(CO2)[C@H]1[C@@]1(C)O[C@@H]1CC=C(C)C` [No 49], the IC50 in the assay with G. lamblia GS (72 h) is 10.1 to 100 nM; in the assay on G. lamblia WB (72 h) it was 101 to 1000 nM; in the assay with E. histolytica HM1: IMSS (72 h), more than 1000 nM; on Recombinant human MetAP2, less than 10 nM.

For the molecule `CO[C@@H]1[C@H](OC(=O)Nc2cc(B(O)O)cc(F)n2)CC[C@]2(CO2)[C@H]1[C@@]1(C)O[C@@H]1CC=C(C)C` [No 50], the IC50 in the assay with G. lamblia GS (72 h) was 10.1 to 100 nM; in the assay with G. lamblia WB (72 h), more than 1000 nM; with E. histolytica HM1: IMSS (72 h) it was more than 1000 nM; at Recombinant human MetAP2, less than 10 nM.

With `CO[C@@H]1[C@H](OC(=O)N2CCOc3c(B(O)O)cccc32)CC[C@]2(CO2)[C@H]1[C@@]1(C)O[C@@H]1CC=C(C)C` [No 51], the IC50 in the assay on G. lamblia GS (72 h) was less than 10 nM; in the assay with G. lamblia WB (72 h) it was 101 to 1000 nM; with E. histolytica HM1: IMSS (72 h), 101 to 1000 nM; at Recombinant human MetAP2, less than 10 nM.

These data come from patent US20260166046A1, “Inhibitors of methionine aminopeptidase-2 and methods of preparation and uses thereof” (Primetime Life Sciences LLC, priority 2022, published 2026).
